Test results from patent US10086039B2, “Lamin A, an activator of longevity/anti-aging SIRT1 protein” (THE UNIVERSITY OF HONG KONG, priority 2012, dated 2018).
Each block holds one molecule with its values, some of them ahead of it.

Assays:
SIRT1 [1] = biological target: T1, SIRT1 (Homo sapiens, UniProt Q96EB6); test: BIOMOL SIRT1 Fluorimetric Drug Discovery Kit (BSDK) deacetylase assay on fluorophore-conjugated acetyl p53 peptide; type: biochemical; parameters: purchased Biomol (Hamburg, Germany)
T1 sequence (Q96EB6 1-747): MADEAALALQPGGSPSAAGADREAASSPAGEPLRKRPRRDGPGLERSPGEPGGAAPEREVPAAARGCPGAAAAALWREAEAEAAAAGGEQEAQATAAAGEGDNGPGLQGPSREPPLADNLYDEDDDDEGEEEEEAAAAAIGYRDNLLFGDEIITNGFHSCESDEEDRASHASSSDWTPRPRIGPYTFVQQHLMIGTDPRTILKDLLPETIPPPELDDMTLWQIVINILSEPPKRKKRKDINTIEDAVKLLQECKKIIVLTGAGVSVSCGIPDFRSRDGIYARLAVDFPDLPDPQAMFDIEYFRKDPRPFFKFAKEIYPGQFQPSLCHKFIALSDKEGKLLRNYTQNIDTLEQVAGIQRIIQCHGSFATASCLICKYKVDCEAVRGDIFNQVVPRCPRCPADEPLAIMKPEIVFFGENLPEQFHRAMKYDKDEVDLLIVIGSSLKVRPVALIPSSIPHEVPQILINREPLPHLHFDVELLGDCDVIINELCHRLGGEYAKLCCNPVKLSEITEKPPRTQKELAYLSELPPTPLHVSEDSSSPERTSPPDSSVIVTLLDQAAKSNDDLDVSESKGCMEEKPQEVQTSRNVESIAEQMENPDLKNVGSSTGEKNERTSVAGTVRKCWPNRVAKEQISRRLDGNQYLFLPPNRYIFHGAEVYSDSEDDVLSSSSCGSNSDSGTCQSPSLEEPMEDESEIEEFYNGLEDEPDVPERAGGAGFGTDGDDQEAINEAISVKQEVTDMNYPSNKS
Experimental: (§1) SIRT1 deacetylation assay on fluorophore-conjugated synthetic p53 peptide was performed with SIRT1 Fluorimetric Drug Discovery Kit (Biomol, Hamburg, Germany) according to the manufactory's instruction. Cells were fractionated as described above except that protease inhibitors were NOT included and the nuclear matrix fraction was suspended into the assay buffer provided by the supplier. Different cell fractions or recombinant human lamin A (rhLamin A, Diatheva, Italy) were added in the reaction mix of SIRT1 Fluorimetric Drug Discovery Kit, incubated for 20 min at 37° C., and then the reaction was stopped and fluorescent signal was detected. SIRT1 deacetylase activity on native target was assayed using SIRT1 assay Kit from Sigma (USA). Constructs encoding FLAG-p53 and HA-p300 were co-transfected into HEK293 cells; FLAG-p53 was immunoprecipitated by anti-FLAG M2 Agarose (Sigma) followed by elution with FLAG peptide (Sigma). Purified acetyl FLAG-p53 was incubated with recombinant human SIRT1 (rhSIRT1) and NAD+ for 30 min at 37° C., in the presence or absence of rhLamin A or resveratrol. The acetylation level of FLAG-p53 was determined by Western blotting with pan anti acetyl lysine antibodies.
To test this hypothesis, in vitro deacetylase activity of rhSIRT1 by a BIOMOL® SIRT1 Fluorimetric Drug Discovery Kit (BSDK) was quantified in the presence or absence of NM derived from wild-type or Zmpste24−/− BMSCs.
This Example further investigates whether lamin A acts as an activator of SIRT1. In mammalian cells, lysine acetyltransferase p300 and SIRT1 mediate the acetylation and deacetylation of p53 on residue K382 (Gu and Roeder, 1997). BSDK utilizes fluorophore-conjugated acetyl p53 peptide as target (see Materials and Methods).

SIRT1 [2] = biological target: T1, SIRT1; details: Beher 2009; Dai 2010; Pacholec 2010; cited from earlier work
Zmpste24−/− HSCs = test: ROS level in freshly isolated HSCs (DCF-DA, FACS); type: in vivo, mouse; details: NAC 1 mg/ml in drinking water; elevated in Zmpste24−/− HSCs
Experimental: (§2) Zmpste24^−/− mice have been described previously (Pendas et al., 2002). Mouse experimentation was performed in accordance with the guidelines of the Committee on the Use of Live Animals in Teaching and Research (CULATR) at the University of Hong Kong. New-born Zmpste24^−/− mice and wild-type controls were fed with resveratrol (20 μg/ml) or N-acetyl Cysteine (1 mg/ml) in drinking water. The survival of resveratrol-treated, NAC-treated, or vehicle-treated Zmpste24^−/− mice was recorded and their body weight was monitored weekly. The trabecular bone organization and bone mineral density were determined by micro-CT. The survival rate was analyzed by Kaplan-Meier method and statistical comparison was performed by Log-rank (Mantel-Cox) Test.
To purify HSCs, red blood cells were lysed using NH4Cl before surface-marker staining, and HSCs were then sorted with a BD FACSVantage SE. Sorted HSCs were incubated with 5 μM DCF-DA at 37° C. for 30 min and analyzed by FACS at 488-nm excitation and 525-nm emission to determine the ROS level.

Zmpste24−/− mice [3] = test: HSC population in bone marrow of treated Zmpste24−/− mice (FACS); type: in vivo, mouse; details: NAC 1 mg/ml in drinking water
Experimental: as §2, with “Zmpste24^-/-” for “Zmpste24^−/−”, “([…]” for “(Pendas”, “Test. To analyze hematopoietic stem cells, mononucleated cells were collected by flushing femurs and tibias with staining medium (HBSS supplemented with 2% FBS) and stained with biotin-coupled lineage markers, Biotin-Flt3, PE-Sca-1, APC-c-Kit, and then SAv-PerCP. FACS profile analyses were performed using a BD FACSCalibur.” for “Test.”

Zmpste24−/− mice [4] = test: Survival and body weight of Zmpste24−/− mice treated via drinking water; type: in vivo, mouse; details: NAC 1 mg/ml in drinking water
Experimental: as §2
Briefly, resveratrol was supplemented at a concentration of 20 μg/ml in drinking water. Four months after treatment, BMSCs were collected for examination and comparison between resveratrol-treated and vehicle-treated Zmpste24^−/− mice.

Zmpste24−/− mice [5] = test: BMSC colony-forming efficiency after in vivo treatment of Zmpste24−/− mice; parameters: species or system mouse; details: NAC 1 mg/ml in drinking water
Experimental: as §2
Bone marrow stromal cells were isolated and cultured according to modified protocol (Enumeration and Expansion of Mouse Mesenchymal Progenitor Cells Using MESENCUILT®, Stemcell Technologies, Canada). Briefly, bone marrow cells were flushed out from femurs and tibias with α-MEM (Invitrogen, Carlsbad, Calif., USA) supplemented with 20% FBS, and plated in petri dishes. Non-adherent cells were removed on day 3 and medium was replaced every 3 days. […] Colonies containing more than 50 cells were counted. BMSC colony forming efficiency was calculated as number of colonies formed by […] bone marrow nucleated cells. […]

SIRT1 [6] = biological target: T1, SIRT1; test: SIRT1 deacetylation assay on native full-length acetyl FLAG-p53 (Western blotting, anti-acetyl lysine); type: biochemical; parameters: purchased Biomol (Hamburg, Germany)
Experimental: as §1
To further test the effect of rhLamin A on the native target of SIRT1, acetyl p53 was purified by anti-FLAG immunoprecipitation in HEK293 cells ectopically expressing FLAG-p53 and p300, and SIRT1 deacetylation assay was performed as described in Materials and Methods.

[7] = biological target: T2, rhSIRT1 binding to rhLamin A (Homo sapiens, UniProt Q96EB6); test: Pull-down of rhSIRT1 with rhLamin A in test tube (anti-lamin A immunoprecipitation); details: in a test tube
T2 construct: purchased Diatheva, Italy (rhLamin A)
T2 sequence (Q96EB6 1-747): T1 sequence (Q96EB6 1-747)
T2 sequence (P02545 1-664 partner): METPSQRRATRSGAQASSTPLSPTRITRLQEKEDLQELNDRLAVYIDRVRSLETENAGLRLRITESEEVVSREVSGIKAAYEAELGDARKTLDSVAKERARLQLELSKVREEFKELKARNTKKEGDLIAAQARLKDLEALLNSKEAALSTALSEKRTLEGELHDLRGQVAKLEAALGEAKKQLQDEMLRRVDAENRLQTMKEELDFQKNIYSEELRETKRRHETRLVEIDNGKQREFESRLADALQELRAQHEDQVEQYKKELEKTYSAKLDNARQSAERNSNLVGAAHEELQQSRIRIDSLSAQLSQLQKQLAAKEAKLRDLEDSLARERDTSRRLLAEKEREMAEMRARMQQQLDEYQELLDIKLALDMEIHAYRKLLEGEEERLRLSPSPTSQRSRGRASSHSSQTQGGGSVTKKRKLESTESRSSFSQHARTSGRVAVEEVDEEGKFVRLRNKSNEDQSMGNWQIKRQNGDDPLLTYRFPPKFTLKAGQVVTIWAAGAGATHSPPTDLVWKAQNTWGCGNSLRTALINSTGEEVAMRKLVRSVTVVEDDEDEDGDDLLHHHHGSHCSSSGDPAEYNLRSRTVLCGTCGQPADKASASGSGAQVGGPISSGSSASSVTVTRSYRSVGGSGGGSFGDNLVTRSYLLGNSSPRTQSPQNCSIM
Experimental: For co-immunoprecipitation, cells were lysed into pre-chilled RIPA buffer containing 300 mM or 500 mM NaCl and protease inhibitors. Primary antibodies or appropriate control IgGs were added to the lysate and incubated for 2 h on a rocking platform at 4° C. before Agarose beads were added and incubated O/N. The beads were washed twice with RIPA buffer, resuspended into Laemmli buffer and boiled, and protein suspension was collected by centrifugation and stored for further analysis.
Consistently, ectopic EGFP-SIRT1 and DsRed-lamin A co-existed in the nuclear interior (FIG. 1D). This interaction seems specific to nuclear SIRT1 as neither cytoplasmic SIRT1 nor mitochondrial SIRT5 was detected in the anti GFP-lamin A immunoprecipitates (FIG. 6C). In addition, SIRT1 physically interacts with lamin A as recombinant human SIRT1 (rhSIRT1) was pulled down by recombinant human lamin A (rhLamin A) in a test tube (FIG. 1E).

Lamin A-stimulated SIRT1 deacetylase activity (SIRT1 [1]; SIRT1 inhibitor added): completely abolished
Molecule: Cc1ccc(C(=O)Nc2ccc(S(=O)(=O)O)c3cc(S(=O)(=O)O)cc(S(=O)(=O)O)c23)cc1NC(=O)c1cccc(NC(=O)Nc2cccc(C(=O)Nc3cc(C(=O)Nc4ccc(S(=O)(=O)O)c5cc(S(=O)(=O)O)cc(S(=O)(=O)O)c45)ccc3C)c2)c1 [Suramin]

Molecule: O=C(Nc1ccccc1-c1cn2c(CN3CCNCC3)csc2n1)c1cnc2ccccc2n1 [SRT1720]
SIRT1 activation towards full-length native target proteins, including p53 and PGC-1α (SIRT1 [2]): do not confer any SIRT1 activation

Molecule: CC(=O)N[C@@H](CS)C(=O)O [N-acetyl Cysteine]
ROS level in HSCs (Zmpste24−/− HSCs): rescued ROS level
decline in HSCs (Zmpste24−/− mice [3]): rescued
lifespan (Zmpste24−/− mice [4]): extended lifespan to a similar extent as resveratrol did
decline in BMSCs (Zmpste24−/− mice [5]): rescued

decrease in FLAG-p53 acetylation level (SIRT1 [6]; rhLamin A-rhSIRT1 complex compared with rhSIRT1 only): around 20%
rhSIRT1 pulled down by rhLamin A [7]: pulled down
B1: rhLamin A: recombinant human lamin A (rhLamin A, Diatheva, Italy) (protein, listed as Homo sapiens)
chain: T2 sequence (P02545 1-664 partner)
deacetylase activity of rhSIRT1 on acetyl p53 peptide (SIRT1 [1]; in the presence of rhLamin A, molar ratio rhLamin A to rhSIRT1 0.5, 1.0, 2.0, 4.0): increased in a dose-dependent manner

activating potential on SIRT1 towards full-length acetylated FLAG-p53 protein (SIRT1 [6]; compared with lamin A): much higher activating potential
activating potential on SIRT1 towards fluorophore-conjugated synthetic peptide (Ac-Arg-His-Lys-LysAc-AMC) (SIRT1 [1]; compared with lamin A): much higher activating potential
B2: LA-80: synthetic peptide of carboxyl 80 aa of lamin A (peptide)
peptide: GSHCSSSGDPAEYNLRSRTVLCGTCGQPADKASASGSGAQVGGPISSGSSASSVTVTRSYRSVGGSGGGSFGDNLVTRSY
